# Test: Antiproliferative activity against VEGF-stimulated HUVEC cells assessed as reduction in cell viability at 10 nM preincubated for 1 hr followed by addition of VEGF measured after 72 hrs by MTT assay
# Assay type: functional
# Details: Homo sapiens
row,Compound,inhibition at 0.01 µM [%]
1,CC1(C)OC(=O)[C@H](CC(=O)Nc2cccc(C(=O)c3ccc4c(/C=C/c5ccccc5)n[nH]c4c3)c2)O1,19
2,CN1CCC=C(C(=O)Nc2cccc(C(=O)c3ccc4c(/C=C/c5ccccc5)n[nH]c4c3)c2)C1,20
3,CC(=O)N1CCC[C@@H]1C(=O)Nc1cccc(C(=O)c2ccc3c(/C=C/c4ccccc4)n[nH]c3c2)c1,37
4,O=C(Nc1cccc(Oc2ccc3c(/C=C/c4ccccc4)n[nH]c3c2)c1)C1CC2C=CC1CC2 (stereo not drawn),13
5,CC(=O)N1CCC(C(=O)Nc2cccc(Nc3ccc4c(/C=C/c5ccccc5)n[nH]c4c3)c2)CC1,13
6,CC(=O)N1CCC[C@@H]1C(=O)Nc1cccc(Oc2ccc3c(/C=C/c4ccccc4)n[nH]c3c2)c1,20
7,O=C(Cc1c(F)cccc1F)Nc1cccc(Oc2ccc3c(/C=C/c4ccccc4)n[nH]c3c2)c1,93
8,O=C(Nc1cccc(Oc2ccc3c(/C=C/c4ccccc4)n[nH]c3c2)c1)c1cc(=O)cco1,18
9,O=C(Cc1ccccc1)C(=O)Nc1cccc(Nc2ccc3c(/C=C/c4ccccc4)n[nH]c3c2)c1,11
10,O=C(CCC(=O)N1CCCC1)Nc1cccc(C(=O)c2ccc3c(/C=C/c4ccccc4)n[nH]c3c2)c1,27
11,C[C@@H]1[C@H](C)[C@H](C)C[C@@H]1C(=O)Nc1cccc(C(=O)c2ccc3c(/C=C/c4ccccc4)n[nH]c3c2)c1,5
12,O=C1CC[C@H](C(=O)Nc2cccc(Nc3ccc4c(/C=C/c5ccccc5)n[nH]c4c3)c2)N1,20
13,Cn1cnc(CC(=O)Nc2cccc(C(=O)c3ccc4c(/C=C/c5ccccc5)n[nH]c4c3)c2)c1,31
14,CC(C)CC(O)C(=O)Nc1cccc(Oc2ccc3c(/C=C/c4ccccc4)n[nH]c3c2)c1 (stereo not drawn),69
15,O=C(Nc1cccc(Nc2ccc3c(/C=C/c4ccccc4)n[nH]c3c2)c1)c1cc(=O)[nH]c(=O)[nH]1,12
16,CC(C)CC(=O)C(=O)Nc1cccc(C(=O)c2ccc3c(/C=C/c4ccccc4)n[nH]c3c2)c1,81
17,O=C(Nc1cccc(Oc2ccc3c(/C=C/c4ccccc4)n[nH]c3c2)c1)C1CCCO1 (stereo not drawn),51
18,CC1CC1C(=O)Nc1cccc(C(=O)c2ccc3c(/C=C/c4ccccc4)n[nH]c3c2)c1 (stereo not drawn),96
19,C[C@@]12C[C@H]3C[C@H]1C[C@@]3(C(=O)Nc1cccc(C(=O)c3ccc4c(/C=C/c5ccccc5)n[nH]c4c3)c1)C2,-1
20,CN1CC(C(=O)Nc2cccc(Oc3ccc4c(/C=C/c5ccccc5)n[nH]c4c3)c2)CC1=O (stereo not drawn),24

row,Compound,inhibition at 0.01 µM [%]
1,COC1CCCC(C(=O)Nc2cccc(C(=O)c3ccc4c(/C=C/c5ccccc5)n[nH]c4c3)c2)C1 (stereo not drawn),30
2,C/C=C(\C)C(=O)Nc1cccc(Nc2ccc3c(/C=C/c4ccccc4)n[nH]c3c2)c1,98
3,O=C(Cc1c(F)cccc1F)Nc1cccc(Nc2ccc3c(/C=C/c4ccccc4)n[nH]c3c2)c1,40
4,COc1cccc(/C=C/C(=O)Nc2cccc(Oc3ccc4c(/C=C/c5ccccc5)n[nH]c4c3)c2)c1,64
5,Cc1nc(S)sc1CC(=O)Nc1cccc(Nc2ccc3c(/C=C/c4ccccc4)n[nH]c3c2)c1,19
6,CC(C)CC(=O)C(=O)Nc1cccc(Oc2ccc3c(/C=C/c4ccccc4)n[nH]c3c2)c1,64
7,CN1CCC=C(C(=O)Nc2cccc(Oc3ccc4c(/C=C/c5ccccc5)n[nH]c4c3)c2)C1,43
8,COc1ccccc1/C=C/C(=O)Nc1cccc(Nc2ccc3c(/C=C/c4ccccc4)n[nH]c3c2)c1,10
9,CC(=O)N1CCCC1C(=O)Nc1cccc(Oc2ccc3c(/C=C/c4ccccc4)n[nH]c3c2)c1 (stereo not drawn),19
10,Cc1cc(C(=O)Nc2cccc(Oc3ccc4c(/C=C/c5ccccc5)n[nH]c4c3)c2)oc(=O)c1,83
11,CCO/C(C)=C/C(=O)Nc1cccc(C(=O)c2ccc3c(/C=C/c4ccccc4)n[nH]c3c2)c1,72
12,CCCN(CCC)CC(=O)Nc1cccc(Nc2ccc3c(/C=C/c4ccccc4)n[nH]c3c2)c1,17
13,C/C(=C\C(=O)Nc1cccc(Nc2ccc3c(/C=C/c4ccccc4)n[nH]c3c2)c1)c1ccccc1C,75
14,O=C(c1cccc(NC(=O)C2CC3CC(O)C2C3)c1)c1ccc2c(/C=C/c3ccccc3)n[nH]c2c1 (stereo not drawn),64
15,O=C1C[C@H](C(=O)Nc2cccc(Nc3ccc4c(/C=C/c5ccccc5)n[nH]c4c3)c2)NC(=O)N1,17
16,O=C(Nc1cccc(Nc2ccc3c(/C=C/c4ccccc4)n[nH]c3c2)c1)c1cccc2cc[nH]c12,94
17,CN1CCC=C(C(=O)Nc2cccc(Nc3ccc4c(/C=C/c5ccccc5)n[nH]c4c3)c2)C1,0
18,CO[C@H](C(=O)Nc1cccc(Oc2ccc3c(/C=C/c4ccccc4)n[nH]c3c2)c1)c1ccccc1,30
19,O=C(Nc1cccc(Nc2ccc3c(/C=C/c4ccccc4)n[nH]c3c2)c1)[C@H]1CCC[C@H]1O,-4
20,O=C1CCC(C(=O)Nc2cccc(C(=O)c3ccc4c(/C=C/c5ccccc5)n[nH]c4c3)c2)CC1,10

row,Compound,inhibition at 0.01 µM [%]
1,CC(C)c1ccccc1C(=O)Nc1cccc(Oc2ccc3c(/C=C/c4ccccc4)n[nH]c3c2)c1,35
2,O=C(Cc1cc(F)cc(F)c1)Nc1cccc(Oc2ccc3c(/C=C/c4ccccc4)n[nH]c3c2)c1,80
3,CC1(C)OC(=O)CC1C(=O)Nc1cccc(Oc2ccc3c(/C=C/c4ccccc4)n[nH]c3c2)c1 (stereo not drawn),25
4,C[C@@H]1[C@H](C)[C@H](C)C[C@@H]1C(=O)Nc1cccc(Nc2ccc3c(/C=C/c4ccccc4)n[nH]c3c2)c1,7
5,O=C(Nc1cccc(Oc2ccc3c(/C=C/c4ccccc4)n[nH]c3c2)c1)c1ccc(=O)oc1,5
6,Cc1cc(C(=O)Nc2cccc(C(=O)c3ccc4c(/C=C/c5ccccc5)n[nH]c4c3)c2)c(C)[nH]1,26
7,CC(C)=NOC(C)C(=O)Nc1cccc(C(=O)c2ccc3c(/C=C/c4ccccc4)n[nH]c3c2)c1 (stereo not drawn),28
8,O=C1CCC(C(=O)Nc2cccc(Nc3ccc4c(/C=C/c5ccccc5)n[nH]c4c3)c2)CC1,-7
9,C/C(=C\C(=O)Nc1cccc(Oc2ccc3c(/C=C/c4ccccc4)n[nH]c3c2)c1)c1ccccc1C,52
10,O=C(CCN1CCCCC1)Nc1cccc(Oc2ccc3c(/C=C/c4ccccc4)n[nH]c3c2)c1,52
11,CCC(C(=O)Nc1cccc(Oc2ccc3c(/C=C/c4ccccc4)n[nH]c3c2)c1)c1ccccc1C (stereo not drawn),46
12,O=C(/C=C/C(=O)Nc1cccc(Nc2ccc3c(/C=C/c4ccccc4)n[nH]c3c2)c1)NCC1CC1,13
13,CC(C)C(=O)Nc1cccc(Oc2ccc3c(/C=C/c4ccccc4)n[nH]c3c2)c1,57
14,Cc1cc(C(=O)Nc2cccc(C(=O)c3ccc4c(/C=C/c5ccccc5)n[nH]c4c3)c2)no1,50
15,CN1CSCCC1C(=O)Nc1cccc(Nc2ccc3c(/C=C/c4ccccc4)n[nH]c3c2)c1 (stereo not drawn),0
16,O=C(CC1CC2CCC1C2)Nc1cccc(Oc2ccc3c(/C=C/c4ccccc4)n[nH]c3c2)c1 (stereo not drawn),78
17,COc1ccccc1/C=C/C(=O)Nc1cccc(C(=O)c2ccc3c(/C=C/c4ccccc4)n[nH]c3c2)c1,47
18,CC(C)[C@@H](O)C(=O)Nc1cccc(Oc2ccc3c(/C=C/c4ccccc4)n[nH]c3c2)c1,32
